Experiments:
[1] = Stability in human liver microsomes assessed as parent compound remaining at 0.5 uM in presence of NADPH by MS/MS analysis; type: ADME, Microsome; details: read-out: Stability
[2] = Stability in rat liver microsomes assessed as parent compound remaining at 0.5 uM in presence of NADPH by MS/MS analysis; type: ADME, Microsome; details: read-out: Stability
[3] = Stability in mouse liver microsomes assessed as parent compound remaining at 0.5 uM in presence of NADPH by MS/MS analysis; type: ADME, Microsome; details: read-out: Stability
[4] = Permeability of compound at pH 7.4; type: ADME; details: not told, read-out: permeability
[5] = AUC in C57BL6 mouse at 2 mg/kg, iv qd administered as bolus dose after 24 hrs by LC-MS/MS analysis; type: ADME, organism-based; parameters: time < 24 hr, dose 2 mg/kg, route intravenous; details: in vivo
[6] = Clearance in C57BL6 mouse at 2 mg/kg, iv qd administered as bolus dose after 24 hrs by LC-MS/MS analysis; type: ADME, organism-based; details: in vivo
[7] = Volume of distribution at steady state in C57BL6 mouse at 2 mg/kg, iv qd administered as bolus dose after 24 hrs by LC-MS/MS analysis; type: ADME, organism-based; details: in vivo, read-out: Vdss
[8] = Cmax in C57BL6 mouse at 30 mg/kg, po qd via gavage after 24 hrs by LC-MS/MS analysis; type: ADME, organism-based; parameters: dose 30 mg/kg, route oral; details: in vivo
[9] = Tmax in C57BL6 mouse at 30 mg/kg, po qd via gavage after 24 hrs by LC-MS/MS analysis; type: ADME, organism-based; details: in vivo
[10] = AUC in C57BL6 mouse at 30 mg/kg, po qd via gavage after 24 hrs by LC-MS/MS analysis; type: ADME, organism-based; parameters: time < 24 hr, dose 30 mg/kg, route oral; details: in vivo
[11] = Half life in mouse hepatocytes; type: ADME, cell-based, Hepatocyte
[12] = Drug metabolism in mouse hepatocytes assessed as UGT-mediated metabolism by measuring half life; type: ADME, cell-based
[13] = target: T1, Nuclear receptor ROR-gamma (Mus musculus, UniProt P51450); assay: Agonist activity at RORgammat in mouse whole blood assessed as induction of IL-17A expression; type: tissue-based
T1 sequence (P51450 whole entry): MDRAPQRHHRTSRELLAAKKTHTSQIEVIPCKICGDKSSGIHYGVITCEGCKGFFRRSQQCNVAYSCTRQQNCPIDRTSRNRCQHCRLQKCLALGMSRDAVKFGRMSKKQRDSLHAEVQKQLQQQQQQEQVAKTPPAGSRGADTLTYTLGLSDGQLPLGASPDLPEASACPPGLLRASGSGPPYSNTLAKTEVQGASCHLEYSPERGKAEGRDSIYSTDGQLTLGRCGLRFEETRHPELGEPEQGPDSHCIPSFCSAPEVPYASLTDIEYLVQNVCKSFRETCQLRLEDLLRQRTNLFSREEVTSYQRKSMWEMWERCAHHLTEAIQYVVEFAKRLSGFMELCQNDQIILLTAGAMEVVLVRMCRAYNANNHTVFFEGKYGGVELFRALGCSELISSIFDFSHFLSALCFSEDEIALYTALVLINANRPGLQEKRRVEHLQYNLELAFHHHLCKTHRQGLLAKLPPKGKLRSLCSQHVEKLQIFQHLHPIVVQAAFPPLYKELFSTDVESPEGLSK

[14] = Drug level in mouse MC38 cells allografted C57BL6 mouse blood at 10 mg/kg, po BID and measured after 24 hrs; type: ADME, organism-based; details: whole blood, read-out: Drug uptake

remaining at 0.5 µM [1] [%]	remaining at 0.5 µM [2] [%]	remaining at 0.5 µM [3] [%]	Structure (SMILES)	also measured
2	30	41	CS(=O)(=O)N[C@H]1CC[C@H](C(=O)N2CC[C@@]3(S(=O)(=O)c4ccc(F)cc4)c4ccc(OCc5c(F)cccc5C(F)(F)F)cc4CC[C@@H]23)CC1	–
97	65	100	O=C(O)[C@H]1CC[C@H](C(=O)N2CC[C@@]3(S(=O)(=O)c4ccc(F)cc4)c4ccc(OCc5c(F)cccc5C(F)(F)F)cc4CC[C@@H]23)CC1	Papp [4]: 10.1 ×10⁻⁶ cm/s; AUC at 24 h [5]: 5.4 µM·h; clearance [6]: 9.1 mL/min/kg; Vd [7]: 1.8 L/kg; Cmax [8]: 38 µM; Tmax [9]: 60 min; AUC at 24 h [10]: 103 µM·h; half-life [11]: > 120 min; half-life [12]: > 120 min
55	67	82	O=C([C@H]1CC[C@H](c2nnn[nH]2)CC1)N1CC[C@@]2(S(=O)(=O)c3ccc(F)cc3)c3ccc(OCc4c(F)cccc4C(F)(F)F)cc3CC[C@@H]12	–
17	39	–	NC(=O)[C@H]1CC[C@H](C(=O)N2CC[C@@]3(S(=O)(=O)c4ccc(F)cc4)c4ccc(OCc5c(F)cccc5C(F)(F)F)cc4CC[C@@H]23)CC1	–
3	33	57	NC(=O)N1CCC(C(=O)N2CC[C@@]3(S(=O)(=O)c4ccc(F)cc4)c4ccc(OCc5c(F)cccc5C(F)(F)F)cc4CC[C@@H]23)CC1	–
1	4	51	O=C(N1CC[C@@]2(S(=O)(=O)c3ccc(F)cc3)c3ccc(OCc4c(F)cccc4C(F)(F)F)cc3CC[C@@H]12)C1(O)CCS(=O)(=O)CC1	–
1	18	52	O=C(C1CCS(=O)(=O)CC1)N1CC[C@@]2(S(=O)(=O)c3ccc(F)cc3)c3ccc(OCc4c(F)cccc4C(F)(F)F)cc3CC[C@@H]12	–
80	48	100	C[C@]1(C(=O)N2CC[C@@]3(S(=O)(=O)c4ccc(F)cc4)c4ccc(OCc5c(F)cccc5C(F)(F)F)cc4CC[C@@H]23)CC[C@H](C(=O)O)CC1	Papp [4]: 40.6 ×10⁻⁶ cm/s; AUC at 24 h [5]: 6.5 µM·h; clearance [6]: 6.7 mL/min/kg; Vd [7]: 1.1 L/kg; Cmax [8]: 61 µM; Tmax [9]: 30 min; AUC at 24 h [10]: 275 µM·h; EC50 [13]: 380 nM; concentration at 24 h [14]: 100 nM
1	14	14	O=C(CN1CCS(=O)(=O)CC1)N1CC[C@@]2(S(=O)(=O)c3ccc(F)cc3)c3ccc(OCc4c(F)cccc4C(F)(F)F)cc3CC[C@@H]12	–

From ChEMBL document CHEMBL4627376, “Substituted benzyloxytricyclic compounds as retinoic acid-related orphan receptor gamma t (RORγt) agonists” (Bioorg Med Chem Lett, 2020)
